Test results as given in patent US20160186209A1, “RECOMBINANT CELLS AND METHODS OF USING SUCH CELLS TO IDENTIFY CIRCADIAN RHYTHM MODULATORS” (University of Memphis Research Foundation, priority 2012, published 2016).

What was measured:
[1] = test system: Differentiated MMH-D3 cells (ERK phosphorylation); assay: Insulin-induced ERK phosphorylation (Western blot), differentiated MMH-D3 cells; assay type: cell-based; conditions: 0.1 nM insulin for 5 minutes
Protocol: (§1) FIGS. 1A-1C are graphs showing that fibroblasts, adipocytes, and hepatocytes display bioluminescence rhythms. […] Reporter cells were generated via lentiviral infection of either Per2-dLuc or Bmal1-dLuc luciferase reporter, and infected cell populations were recorded in a LumiCycle. Baseline-subtracted bioluminescence data of both reporter lines are plotted together to show the expected, approximately anti-phasic reporter expression for each cell type. […] Baseline-subtracted bioluminescence data of selected clonal lines representing both reporter types are plotted together to show anti-phasic reporter expression for each cell type. High reproducibility is illustrated by showing data from 24 of the 96 wells for each reporter. […] Differentiated 3T3-L1 and MMH-D3 cells were treated with 0.1, 1, or 10 nM insulin for 5, 15, or 30 minutes, followed by cell lysis and Western blot analysis with ERK and pERK antibodies. […] Data are representative of two independent experiments.
(§2) To develop new models, a battery of luciferase-based reporters that can be introduced into cells via transient transfection or lentiviral transduction was engineered. To explore cell type specificity of clock gene function, new reporter cell lines comprising lentiviral luciferase reporter driven either by the Per2 or Bmal1 promoters were developed. […]

[2] = test system: Differentiated 3T3-L1 cells (ERK phosphorylation); assay: Insulin-induced ERK phosphorylation (Western blot), differentiated 3T3-L1 cells; assay type: cell-based, mouse; conditions: 0.1 nM insulin for 5 minutes
Protocol: as §1, §2

For insulin, the “ERK activation as reflected by its phosphorylation” value [1] was “sufficient to activate ERK” and the “ERK activation as reflected by its phosphorylation” value [2] was “sufficient to activate ERK”.
